Laboratory results reported in patent publication US20200000976A1, “A MEDICAL IMPLANT AND A METHOD OF COATING A MEDICAL IMPLANT” (priority 2016, published 2020).

Experiments:
[1] = binding and release of antimicrobial silver on Ti, PCL and PEEK (previous in house work); assay type: physicochemical
[2] = Palacos cement; cited from earlier work
[3] = tested on: osteoblasts derived from trabecular bone; details: cited from earlier work
[4] = Palacos cement; cited from earlier work; remark: listed apart in the source

Compound	elution from cement at low doses [2]	effects at high concentrations [4]	low levels with no or little effect on the replication of osteoblasts [3] [µg/mL]	other results
[Ag] [antimicrobial silver, silver]	–	–	–	time of release above MIC [1]: 40 days; released level (above MIC) ([1]; for 40 days): above 1 ug/mL
gentamicin	very little elution occurs	local cytotoxic effects	–	levels impeding 3H-thymidine levels [3]: > 100 mL⁻¹
CN[C@H](CC(C)C)C(=O)N[C@H]1C(=O)N[C@@H](CC(N)=O)C(=O)N[C@H]2C(=O)N[C@H]3C(=O)N[C@H](C(=O)N[C@H](C(=O)O)c4cc(O)cc(O)c4-c4cc3ccc4O)[C@H](O)c3ccc(c(Cl)c3)Oc3cc2cc(c3O[C@@H]2O[C@H](CO)[C@@H](O)[C@H](O)[C@H]2O[C@H]2C[C@](C)(N)[C@H](O)[C@H](C)O2)Oc2ccc(cc2Cl)[C@H]1O [vancomycin]	–	–	< 1	high concentrations at which cell death of osteoblasts occurs [3]: 10,000 /mL
teicoplanin	very little elution occurs	local cytotoxic effects	–	–
NC[C@H]1O[C@H](O[C@H]2[C@H](O)[C@@H](O[C@H]3O[C@H](CO)[C@@H](O)[C@H](N)[C@H]3O)[C@H](N)C[C@@H]2N)[C@H](N)C[C@@H]1O [Tobramycin, tobramycin]	–	–	< 200	higher concentrations at which replication decreases and eventually cell death occurs [3]: > 400 µg/mL
